# Test results: PMC9486809, “Exploring the Surface of the Ectodomain of the PD-L1 Immune Checkpoint with Small-Molecule Fragments” (ACS Chemical Biology, 2022)
# Molecular target: T1, PD-L1 (Homo sapiens, UniProt Q9NZQ7)
# Experiment: 1H NMR; KD stated (data not shown)
# Assay type: binding
# Design: gene CD274; ectodomain, PD-L1-long (amino acids 18–239)
# Conditions: cited from earlier work
# T1 sequence (Q9NZQ7 18-239): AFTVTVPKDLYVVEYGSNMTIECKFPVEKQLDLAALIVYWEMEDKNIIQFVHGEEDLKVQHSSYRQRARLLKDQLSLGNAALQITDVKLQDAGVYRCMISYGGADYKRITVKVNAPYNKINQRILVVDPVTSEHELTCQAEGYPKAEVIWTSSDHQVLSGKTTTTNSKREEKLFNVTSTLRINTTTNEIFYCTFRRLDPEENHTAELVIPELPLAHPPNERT
row,Structure (SMILES),Kd [mM]
1,CN1CCOc2cc(C#N)ccc21 [STD4],2.21

# Molecular target: T1, PD-L1
# Experiment: biochemical
# Design: gene CD274; ectodomain, PD-L1-long (amino acids 18–239); Differential scanning fluorimetry, melting temperature shift of PD-L1 ectodomain (PD-L1-long)
# Conditions: read-out: DSF (°C)
# Description: Fragments were screened in both techniques as singletons. […] The fragments were tested at a final concentration of 0.1 mM. […] DSF hits were defined as fragments, resulting in an increase or decrease in melting point of PD-L1 by at least 0.5 °C. […] Having the library in hand, we carried out screening using differential scanning fluorimetry and 1D NMR techniques. Previously, the fragment-based approach with a large library of compounds (>13 000) was tested on the PD-L1 V1 domain.[33] […] Therefore, instead of using a large fragment library, we assembled a focused library of fragments containing the biphenyl core extracted from known inhibitors. The obtained fragments were decorated with different substituents to test how these variations will affect the binding of biphenyl. The expression and purification protocol relate to work on PD-L1-short published earlier by us. Briefly, Escherichia coli strain BL21 (DE3) was transformed with a pET-21b plasmid carrying the PD-L1-long gene (amino acids 18–239). The bacteria were cultured in LB at 37 °C until OD600 nm of 0.8 when the recombinant protein production was induced with 1 mM IPTG. The protein expression was carried out at 37 °C for 5 h. Next, bacteria cells were harvested, and the pellet was frozen at −20 °C. […] Inclusion bodies were collected by centrifugation, suspended in 1× PBS, and then sonicated to finally collect them again by centrifugation. Then, the inclusion bodies were washed twice with 50 mM Tris-HCl, pH 8.0, containing 200 mM NaCl, 10 mM EDTA, 10 mM 2- mercaptoethanol, and 0.5% Triton X-100, followed by a single wash with the same buffer without Triton X-100.
row,ΔTm at 100 µM [°C],Structure (SMILES)
1,0.3,Cc1cc(Br)cc(-c2ccc3c(c2)OCCO3)c1 [TAH60]
2,0.3,Cc1c(-c2ccc(CO)cc2)cccc1-c1ccc(CO)cc1 [TAH50]
3,0.3,OCc1cccc(-c2cccnc2)c1Cl [TAH5]
4,0.1,COC(=O)c1cncc(-c2cccc(CO)c2C)c1 [TAH2]
5,1.1,Oc1cccc(-c2cccc(F)c2)c1 [TAH41]
6,0.5,COc1cccc(-c2cccc(O)c2)c1 [TAH14]
7,0.3,Cc1c(-c2ccc3c(c2)OCCO3)cccc1N1CCCCC1=O [TAH17]
8,-1.2,Cc1c(N)cccc1-c1cccc(N)c1C [TAH35]
9,0.1,O=C1CCc2cc(-c3ccc4c(c3)OCCO4)ccc21 [TAH30]
10,0.3,Nc1c(C(=O)O)cccc1-c1ccccc1 [TAH7]
11,0.7,Cc1ccc(-c2ccc3c(c2)OCCO3)c(N)c1 [TAH53]
12,0.3,Cc1c(CO)cccc1-c1cccc(CO)c1Br [TAH3]
13,0.3,Cc1c(N)cccc1-c1ccccc1 [TAH39]
14,0.1,CNc1cccc(-c2ccc3c(c2)OCCO3)c1 [TAH56]
15,0.5,Cc1c(N)cccc1-c1ccc2c(c1)OCCO2 [TAH16]
16,-1.1,Cc1c(CO)cccc1-c1cccc2c1OCCN2C [TAH61]
17,0.1,Nc1c(CO)cccc1-c1ccncc1 [TAH57]

row,ΔTm at 100 µM [°C],Structure (SMILES)
1,0.1,Cc1c(N)cccc1-c1ccc(C#N)cc1 [TAH29]
2,0.1,COc1ccc(-c2cccc(CO)c2N)cc1 [TAH58]
3,0.1,Oc1cccc(-c2cccc(Br)c2)c1 [TAH11]
4,0.1,Cc1c(C#N)cccc1-c1cccc(C#N)c1C [TAH37]
5,0.3,Cc1c(N)cccc1-c1ccccn1 [TAH28]
6,0.3,COC(=O)c1cccc(-c2ccccc2)c1N [TAH8]
7,0.3,Cc1cccc(N)c1-c1ccc2c(c1)OCCO2 [TAH55]
8,0.3,Cc1c(-c2cccc([N+](=O)[O-])c2C)cccc1[N+](=O)[O-] [TAH34]
9,0.3,Nc1c(CO)cccc1-c1ccc2c(c1)OCCO2 [TAH6]
10,0.9,Cc1c(/C=C/C#N)cccc1-c1ccc2c(c1)OCCO2 [TAH38]
11,0.3,O=C(O)c1cccc(-c2ccccc2)c1Br [TAH40]
12,0.5,Nc1c(Br)cccc1-c1ccc(CO)cc1 [TAH44]
13,0.3,Nc1c(Br)cccc1-c1ccc2c(c1)OCCO2 [TAH59]
14,0.5,OCc1cccc(-c2ccc3c(c2)OCCO3)c1Cl [TAH4]
15,0.5,Nc1c(-c2ccc3c(c2)OCCO3)cccc1-c1ccc2c(c1)OCCO2 [TAH46]
16,0.5,COC(=O)c1cccc(-c2ccccc2)c1Br [TAH9]

# Molecular target: T1, PD-L1
# Experiment: w-AIDA-NMR KD, 1H-15N HMQC NMR, 1H NMR, DSF
# Assay type: binding
# Design: gene CD274; ectodomain, PD-L1-long (amino acids 18–239); PD-L1-short in 1H-15N HMQC
# Conditions: not given
row,Kd [mM],Structure (SMILES)
1,~20,Cc1c(N)cccc1-c1cccc(N)c1C [TAH35]

# Molecular target: T1, PD-L1
# Experiment: biochemical
# Design: gene CD274
# Conditions: read-out: DSF (°C)
# Remark: another data set of the same source
# Description: Fragments were screened in both techniques as singletons. […] The fragments were tested at a final concentration of 0.1 mM. […] DSF hits were defined as fragments, resulting in an increase or decrease in melting point of PD-L1 by at least 0.5 °C. […] Having the library in hand, we carried out screening using differential scanning fluorimetry and 1D NMR techniques. Previously, the fragment-based approach with a large library of compounds (>13 000) was tested on the PD-L1 V1 domain.[33] […] Therefore, instead of using a large fragment library, we assembled a focused library of fragments containing the biphenyl core extracted from known inhibitors. The obtained fragments were decorated with different substituents to test how these variations will affect the binding of biphenyl. The expression and purification protocol relate to work on PD-L1-short published earlier by us. Briefly, Escherichia coli strain BL21 (DE3) was transformed with a pET-21b plasmid carrying the PD-L1-long gene (amino acids 18–239). The bacteria were cultured in LB at 37 °C until OD600 nm of 0.8 when the recombinant protein production was induced with 1 mM IPTG. The protein expression was carried out at 37 °C for 5 h. Next, bacteria cells were harvested, and the pellet was frozen at −20 °C. […]
row,ΔTm at 100 µM [°C],Structure (SMILES)
1,2.7,Cc1c(COc2cc(OCc3cccc(C#N)c3)c(CN3C[C@H](O)C[C@@H]3C(=O)O)cc2Cl)cccc1-c1ccc2c(c1)OCCO2 [BMS-1166]

# Molecular target: T1, PD-L1
# Experiment: 1H-15N HMQC NMR, w-AIDA-NMR KD, 1H NMR
# Assay type: binding
# Design: gene CD274; ectodomain, PD-L1-long (amino acids 18–239); PD-L1-short in 1H-15N HMQC
# Conditions: not given
row,Kd [mM],Structure (SMILES)
1,~40,OCc1cccc(-c2ccc3c(c2)OCCO3)c1Cl [TAH4]
